Laboratory results from publication PMC9539280 (Advanced Science, 2022).
Structures can show the parent of a compound that is named as a salt. Where two headings read alike, the source gives them in different places.

Experiments:
[1] = cited from earlier work
[2] = cited from earlier work; for Cardiotoxic effects: reported clinical cardiotoxic effects of the repurposed drug, 10a,b, 10c, 41, 42
[3] = system: hCMs; assay: Mitochondrial (MitoSox) and intracellular (DCFH-DA) ROS measurement in hCMs; assay type: cell-based, human; details: remdesivir 10 μM, 4 or 6 days; for could alter the level of ROS in hCMs when co-stimulated with remdesivir: Asta 10 μM, Vc 50 μg/ml, Vb1 10 μg/ml, NAC 1 mM, GSH 25 μg/ml
Experimental: Mitochondrial‐associated ROS and intracellular ROS were measured using MitoSox Red Mitochondrial Superoxide Indicator (M‐36008, ThermoFisher) and DCFH‐DA (S0033S, Beyotime), respectively. For mitochondrial‐associated ROS measurement, hCMs were loaded with 4 × 10^−6 M MitoSox dye in Hanks' balanced salt solution buffer for 15 min at 37 °C and washed twice with PBS. The MitoSox fluorescence (excitation/emission = 510/580 nm) was detected and quantified by the Operetta CLS High‐Content Analysis System. For intracellular ROS measurement, hCMs were loaded with 10 × 10^−6 M DCFH‐DA in serum‐free medium for 20 min at 37 °C and washed twice with serum‐free medium. The DCFH fluorescence (excitation/emission = 488/525 nm) was detected and quantified by the Operetta CLS High‐Content Analysis System.

[4] = system: hCMs (human pluripotent stem cell-derived cardiomyocytes); assay: Cytotoxicity assay, calcein-AM/PI double staining, relative cell viability; assay type: cell-based; details: for effects on normal hCMs (viability, apoptosis, sarcomere organization): absence of remdesivir, 3 μM and 10 μM; for cell viability of hCMs: 6 days, escalating concentrations (0.03-3 or 1-30 × 10^−6 M), calcein-AM/PI
Experimental: (§1) hCMs were dissociated with 0.25% trypsin/EDTA (25200072, Gibco) and then seeded into 384‐well plates at the density of 8 × 10^3 cells per well. 24 h after seeding, cells were exposed to the drugs at the indicated concentrations for 6 days. Culture media were fully changed every 3 days with new drug supplementation. After drug treatment, cells were stained with calcein‐AM/PI/Hoechst for 20 min using calcein‐AM/PI double staining kit (C542, DOJINDO). Images were captured by the Operetta CLS High‐Content Analysis System (PerkinElmer). Number of live cells (calcein‐AM+/PI‐) and dead cells (PI+) was quantified by using the Harmony 4.9 software (PerkinElmer). Number of live cells was used to calculate the “relative cell viability” as follows (1) relarivecellviability=numberoflivecellsineachtreatment/numberoflivecellsinDMSOcontrol×100%

[5] = system: remdesivir-treated hCMs; assay: High-throughput screening and validation of compounds protective against remdesivir (cell viability); assay type: cell-based, human; details: for remdesivir-induced cardiotoxicity (cell viability), protection: 10 × 10^−6 or 25 × 10^−6 M remdesivir for 6 days with co-administration
Experimental: as §1
hCMs were seeded into 384‐well plates at a density of 8 × 10^3 cells per well. 24 h after seeding, the cells were treated with either 25 × 10^−6 M remdesivir alone or remdesivir with the chemicals from a Bioactive Compound Library (Topscience) consisted of 2464 natural compounds and US FDA‐approved drugs for 6 days. Chemicals at the concentration of 5 × 10^−6 M were transferred to the plates by using a Tecan Freedom EVO 150 liquid handler.

[6] = system: hCMs; assay: Calcium measurement in hCMs under electrical field stimulation
[7] = system: hCMs; assay: Spontaneous calcium transient measurement (Fluo-4) in hCMs; details: 6 days; for calcium transient amplitude: escalating concentrations (1-20 μM)
[8] = system: hEHTs (human engineered heart tissues); assay: TUNEL/α-actinin staining of hEHTs; details: for toxicity to hEHTs: 2 × 10^−6 and 5 × 10^−6 M for 3 days
[9] = system: hCMs; assay: TUNEL apoptosis assay in hCMs; details: 6 days
[10] = system: hCMs; assay: Sarcomere organization by α-actinin immunostaining in hCMs; details: 6 days
[11] = system: hEHTs (human engineered heart tissues); assay: Contractile force / spontaneous contractility of hEHTs
[12] = system: hCMs; parameters: method as in PMID 34142159; details: ref 25a; cited from earlier work
[13] = system: mitochondrial permeability transition pore; details: not told; cited from earlier work
[14] = read-out: C max, maximum plasma concentration, ref U.S. FDA or published literature
[15] = spontaneous, escalating concentrations (lopinavir: high dosage only)
[16] = 2 × 10^−6 M remdesivir and 2 × 10^−6 M astaxanthin for 2 days

CC(=O)Oc1ccccc1C(=O)Nc1ncc([N+](=O)[O-])s1 [Nitazoxanide, nitazoxanide]
Cmax ([1]; in vivo): 17.5 µM

CCN(CCO)CCCC(C)Nc1ccnc2cc(Cl)ccc12 (stereo not shown) [Hydroxychloroquine, hydroxychloroquine]
Cmax ([1]; in vivo): 1.35 µM | Cardiotoxic effects [2]: QTc prolongation^[ [41] ^]

CC(C)CN(C[C@@H](O)[C@H](Cc1ccccc1)NC(=O)O[C@H]1CO[C@H]2OCC[C@H]21)S(=O)(=O)c1ccc(N)cc1 [Darunavir, darunavir]
Cmax [1, 14]: 12.7 µM

CCS(=O)(=O)N1CC(CC#N)(n2cc(-c3ncnc4[nH]ccc34)cn2)C1 [Baricitinib, baricitinib]
Cmax [1, 14]: 3.69 µM

CC[C@H]1OC(=O)[C@H](C)[C@@H](O[C@H]2C[C@@](C)(OC)[C@@H](O)[C@H](C)O2)[C@H](C)[C@@H](O[C@@H]2O[C@H](C)C[C@H](N(C)C)[C@H]2O)[C@](C)(O)C[C@@H](C)CN(C)[C@H](C)[C@@H](O)[C@]1(C)O [Azithromycin, azithromycin]
Cmax [1, 14]: 0.67 µM | Cardiotoxic effects [2]: Ventricular arrhythmias^[ [42] ^]

ivermectin
Cmax [1, 14]: 0.049 µM | associated adverse cardiac effect [2]: tachycardia

Cc1ncc(C[n+]2csc(CCO)c2C)c(N)n1 [vitamin B1]
could alter the level of ROS in hCMs when co-stimulated with remdesivir [3]: neither

COCCCC/C(=N\OCCN)c1ccc(C(F)(F)F)cc1 [Fluvoxamine, fluvoxamine]
Cmax [1, 14]: 0.73 µM

CON=C(C(=O)NC1C(=O)N2C(C(=O)O)=C(CSC(=O)c3ccco3)CSC12)c1csc(N)n1 (stereo not shown) [ceftiofur hydrochloride]
effects on normal hCMs (viability, apoptosis, sarcomere organization) [4]: little effects | remdesivir-induced cardiotoxicity (cell viability), protection [5]: confirmed to reduce

CC(C)(C)[C@H](NC(=O)C(F)(F)F)C(=O)N1C[C@H]2[C@@H]([C@H]1C(=O)N[C@H](C#N)C[C@@H]1CCNC1=O)C2(C)C [Nirmatrelvir, nirmatrelvir]
Cmax ([1]; in vivo): 6.66 µM

O=C1O[C@H]([C@@H](O)CO)C(O)=C1O [vitamin C]
could alter the level of ROS in hCMs when co-stimulated with remdesivir [3]: neither

CC(C)C(=O)OC[C@H]1O[C@@H](n2ccc(NO)nc2=O)[C@H](O)[C@@H]1O [Molnupiravir, molnupiravir]
Cmax ([1]; in vivo): 10 to 15 µM

OCCOCCN1CCN(C2=Nc3ccccc3Sc3ccccc32)CC1 [quetiapine fumarate]
effects on normal hCMs (viability, apoptosis, sarcomere organization) [4]: little effects | remdesivir-induced cardiotoxicity (cell viability), protection [5]: confirmed to reduce

C[C@H]1[C@H](OC(=O)CCC(=O)O)O[C@@H]2O[C@@]3(C)CC[C@H]4[C@H](C)CC[C@@H]1[C@@]24OO3 [Artesunate, artesunate]
Cmax ([1]; in vivo): 0.17 µM

CC(C)c1nc(CN(C)C(=O)N[C@H](C(=O)N[C@@H](Cc2ccccc2)C[C@H](O)[C@H](Cc2ccccc2)NC(=O)OCc2cncs2)C(C)C)cs1 [Ritonavir, ritonavir]
intracellular calcium handling properties of hCMs [6]: impair | calcium transient amplitude ([7]; spontaneous): tended to decrease | toxicity to hEHTs [8]: toxic to hEHTs | Cmax ([1]; in vivo): 1.32 µM | Cardiotoxic effects [2]: QTc prolongation and arrhythmias^[ [9] ^] | apoptosis of hCMs (TUNEL) [9]: increased apoptosis | sarcomere organization of hCMs [10]: sarcomeric disarray

NC(=O)c1nc(F)c[nH]c1=O [Favipiravir, favipiravir]
Cmax ([1]; in vivo): 115 µM

CC(=O)N[C@@H](CS)C(=O)O [N‐acetylcysteine]
could alter the level of ROS in hCMs when co-stimulated with remdesivir [3]: neither

Cc1cccc(C)c1OCC(=O)N[C@@H](Cc1ccccc1)[C@@H](O)C[C@H](Cc1ccccc1)NC(=O)[C@H](C(C)C)N1CCCNC1=O [Lopinavir, lopinavir]
intracellular calcium handling properties of hCMs [6]: impair | calcium transient amplitude ([7]; spontaneous): tended to decrease | time to 50% decay of the calcium transients [7, 15]: significantly increased | time to peak of the calcium transients [7, 15]: significantly increased | toxicity to hEHTs [8]: toxic to hEHTs | Cmax ([1]; in vivo): 42.1 µM | cell viability of hCMs [4]: dose‐dependent decrease | apoptosis of hCMs (TUNEL) [9]: increased apoptosis | sarcomere organization of hCMs [10]: sarcomeric disarray

CCC(CC)COC(=O)[C@H](C)N[P@](=O)(OC[C@H]1O[C@@](C#N)(c2ccc3c(N)ncnn23)[C@H](O)[C@@H]1O)Oc1ccccc1 [Remdesivir, remdesivir]
intracellular calcium handling properties of hCMs [6]: impair | toxicity to hEHTs [8]: toxic to hEHTs | ROS level in hCMs ([3]; MitoSox and DCFH-DA): did not alter | Cmax [1, 14]: 9.03 µM | Cardiotoxic effects [2]: Cardiac arrest,^[ [10a,b] ^] heart failures,^[ [10c] ^] arrhythmias^[ [10c] ^] | hEHT function (tissue level cardiotoxicity) [11]: weaken hEHT function | abnormal beating of hEHTs (spontaneous contractility) ([11]; 2 × 10^−6 or 5 × 10^−6 M for 3 days): more severe | passive force of hEHTs ([11]; 3 days): increases of the passive force | contractile force of hEHTs ([11]; progressive stretch 0-12%, 3 days): much lower | cell viability of hCMs [4]: dose‐dependent decrease | apoptosis of hCMs (TUNEL) [9]: increased apoptosis | sarcomere organization of hCMs [10]: sarcomeric disarray | ROS levels in hCMs [12]: does not alter | mitochondrial fragmentation [12]: induce mitochondrial fragmentation | mitochondrial respiration [12]: suppress mitochondrial respiration

CCN(CC)CCCC(C)Nc1ccnc2cc(Cl)ccc12 (stereo not shown) [Chloroquine, chloroquine]
Cmax [1, 14]: 1.17 µM

CCOC(=O)C1=C[C@@H](OC(CC)CC)[C@H](NC(C)=O)[C@@H](N)C1 [oseltamivir]
associated adverse cardiac effect [2]: tachycardia

CC1=C(/C=C/C(C)=C/C=C/C(C)=C/C=C/C=C(C)/C=C/C=C(C)/C=C/C2=C(C)C(=O)[C@@H](O)CC2(C)C)C(C)(C)C[C@H](O)C1=O [astaxanthin]
frequency of abnormal beating caused by remdesivir ([6]; 10 × 10^−6 M remdesivir plus 10 × 10^−6 M astaxanthin, 6 days): relieved dramatically | remdesivir-induced alterations in calcium transient duration ([7]; 10 × 10^−6 M remdesivir plus 10 × 10^−6 M astaxanthin): reversed | cell apoptosis in hEHTs exposed to remdesivir [8, 16]: remarkably decreased | could alter the level of ROS in hCMs when co-stimulated with remdesivir [3]: neither | decrease in contractile force induced by remdesivir in hEHTs [11, 16]: significantly resolved | proportion of abnormal beating induced by remdesivir in hEHTs [11, 16]: significantly resolved | effects on normal hCMs (viability, apoptosis, sarcomere organization) [4]: little effects | protective effect against remdesivir compared with the other hits [5]: most prominent protective effect | remdesivir-induced cardiotoxicity (cell viability), protection [5]: confirmed to reduce | opening of mitochondrial permeability transition pore [13]: inhibit the opening

N[C@@H](CCC(=O)N[C@@H](CS)C(=O)NCC(=O)O)C(=O)O [reduced L‐Glutathione]
could alter the level of ROS in hCMs when co-stimulated with remdesivir [3]: neither

Cc1c(-c2ccc(-c3ccccc3F)cc2)nc2ccc(F)cc2c1C(=O)O [Brequinar, brequinar]
Cmax ([1]; in vivo): 16 µM

C[C@@H]1CCN(C(=O)CC#N)C[C@@H]1N(C)c1ncnc2[nH]ccc12 [Tofacitinib, tofacitinib]
Cmax [1, 14]: 0.135 µM

CC1(C)C(=O)N(c2ccc(C#N)c(C(F)(F)F)c2F)C(=S)N1c1ccc(CCCc2ncco2)nc1 [Proxalutamide, proxalutamide]
Cmax [1, 14]: 29 µM

C[C@H]1C[C@@H]2[C@H]([C@@H](O)C[C@@]3(C)[C@H]2CC[C@]3(O)C(=O)CO)[C@@]2(C)C=CC(=O)C=C12 [Methylprednisolone, methylprednisolone]
Cmax ([1]; in vivo): 1.26 µM

N#CC[C@H](C1CCCC1)n1cc(-c2ncnc3[nH]ccc23)cn1 [Ruxolitinib, ruxolitinib]
Cmax ([1]; in vivo): 7.1 µM
